Where two headings read alike, the source gives them in different places. Bounds are passed on as bounds.

Here are results for three compounds from publication PMC11883425, “The synthesis and investigation of novel 3-benzoylbenzofurans and pyrazole derivatives for anti-HIV activity” (RSC Medicinal Chemistry, 2025).

The test system of data set [1] is HIV-1 subtype C pseudoviruses. Conditions: cited from earlier work.
In the next data set the test system is various HIV-1 subtypes. The settings on record: literature reports; read-out: IC50 against various HIV-1 subtypes; cited from earlier work.
The next data set has as its system HIV-1 CAP210 pseudovirus. Nature of the data set: HIV-1 whole virus inhibition assay, CAP210 pseudovirus (luciferase, TZM-bl cells). Type of data set: cell-based. The settings on record: for IC50: TZM-bl, 48 h, read-out: IC50 (μM) CAP210, CAP210 pseudovirus, TZM-bl cells, 48 hours. As to the method:
(§1) The HIV pseudoviruses were produced from the plasmids that were kindly donated by Dr Mthunzi-Kufa (CSIR, South Africa). Competent DH5α cells and STBL2 cells were transformed with envelope (CAP210.2.00.E8 and Q23.17) and backbone plasmid (HIV-1 SG3 ΔEnv) through heat-shock at 42 °C for 90 seconds and cooled in ice for 5 minutes. The transformed cells were grown in Luria Bertani medium containing 100 μg mL^−1 ampicillin and glycerol stocks were prepared. The transformed cells were grown at 37 °C in a 200 rpm shaking incubator overnight and the plasmids were isolated from the cells using a GeneJET plasmid Miniprep Kit (ThermoFisher Scientific Inc). The purity of the isolated plasmids was assessed for purity using Nanodrop. The HEK 293T cells were co-transfected with the backbone (10 μg) and envelope plasmids (5 μg) using the PolyFect Transfection Reagent (QIAGEN N.V) for 8–12 hours and the transfected cells were grown for 48 hours producing pseudoviruses which were collected, and stocks stored at −80 °C.
(§2) The compounds were serial diluted from 100 to1.56 μM in 96 well plates (Separation Scientific SA (Pty) Ltd) and incubated with either CAP210 or Q23 pseudoviruses (200 TCID50) and incubated for 1 hour. The TZM-bl cells (1 × 10^5 cells per mL containing 7.5 μg mL^−1 DEAE-dextran) were added and incubated for 48 hours. The 96 well plates were centrifuged, and the supernatant was removed leaving only 50 μL in each well. The Bright-Glo™ Luciferase substrate (Anatech Instruments (Pty) Ltd) (50 μL) was added to each well and incubated for 2 minutes in the dark and chemiluminescence readings were taken in a Corning® 96-well white polystyrene plate using a SpectraMax® Paradigm® Multi-Mode Microplate Reader.

Another data set deals with HIV-1 Q23 pseudovirus. In words: HIV-1 whole virus inhibition assay, Q23 pseudovirus (luciferase, TZM-bl cells). Format: cell-based. As to the method:
as §1, §2

The subject of the next data set is CAP210 pseudovirus. In words: Time of drug addition assay, CAP210 pseudovirus in TZM-bl cells. Conditions: 3 μM, added 0, 2, 4, 6, 8 hours post-infection. Format: cell-based, HIV-1. The procedure: Fig. 5 Time of addition assay of CAP210 HIV infection treated with active compounds. TZM-bl cells were infected with CAP210 pseudoviruses and treated with compounds at various hours post-infection. NVP, 3g, and 4b were used at 3 μM, while 5f and 5h were used at 25 μM. The bars represent the mean ± SEM obtained from three independent experiments.
TZM-bl cells (1 × 10^5 cells per mL containing 7.5 μg mL^−1 DEAE-dextran) were infected with CAP210 pseudovirus at 400 TCID50 and incubated at 37 °C for 48 hours. The compounds were added to the wells at various time points (0, 2, 4, 6, and 8 hours) post-infection. […] After 48 hours, the cells were centrifuged at 1200 × g for 5 minutes, culture media was removed, leaving 50 μL, and Bright-Glo substrate (50 μL) was added to detect luciferase activity for 2 minutes at 37 °C. Inhibition of HIV pseudoviruses by active compounds was detected by reading for chemiluminescence using a Corning® 96-well white polystyrene using the SpectraMax® Paradigm® Multi-Mode Microplate Reader.

Data set [2] is described as follows: Cytotoxicity in TZM-bl cells by MTT assay. Format: cell-based. Conditions: human, MTT assay, 48 hours, mean ± SEM. As to the method:
(§3) All cell culture reagents and cell growth medium were purchased from Sigma-Aldrich/Merck. The cell lines are TZM-bl cells (HeLa cells derived cell that is genetically engineered to contain CD4 and CCR5/CXCR4 receptor) were obtained from NIH AIDS Reagent Program and HEK 293T (derived from human embryonic kidney cells) were received as donations from the lab of Dr Patience Mthunzi, Biophotonics laboratory, CSIR. […] The cells were cultured in T-75 culture flasks (Lasec SA (Pty) Ltd Johannesburg) in Dulbecco's modified Eagle's medium (DMEM) with 3.7 g L^−1 […], 0.05% (v/v) gentamicin/mL, 1% penicillin/streptomycin and 10% heat-inactivated fetal bovine serum (Celtic Molecular Diagnostics). All incubations for tissue cell culture were conducted in a 37 °C, 5% CO2, and 95% humidity incubator.
(§4) The cytotoxicity of compounds was evaluated in TZM-bl cells since these cells are susceptible to HIV infections and would be used for the evaluation of HIV entry inhibition by 3-benzoylbenzofurans and pyrazole derivatives.[74] MTT dye (3-(4,5-dimethylthiazol-2-yl)-2,5-diphenyltetrazolium bromide), which is reduced by viable cells to produce […] purple formazan, was then measured and correlated with cell viability.[75] TZM-bl cells were cultured to confluency in DMEM containing 10% FBS and harvested by centrifugation at 1200 × g for 5 minutes. The cells were counted at 1 × 10^5 cells per mL per well and were seeded overnight, followed by treatment with serially diluted compounds from 500 to 0.98 μM for 48 hours. The peripheral blood mononuclear cells (PBMCs) were isolated from the blood of HIV-negative volunteers, treated with phytohaemagglutinin-protein (PHA, 4 μg mL^−1) to stimulate the cells for 2 hours. PBMCs were diluted in RPMI-1640 medium, counted and 1 × 10^6 cells per mL were treated with compounds (500 to 0.98 μM) for 48 hours. Cells were harvested by centrifugation at 1200 × g for 5 minutes, and the supernatants were removed. For the PBMCs, MTS dye (3-(4,5-dimethylthiazol-2-yl)-5-(3-carboxymethoxyphenylo)-2-(4-sulfophenyl)-2H-tetrazolium) was used.[76] A 100 μL of tetrazolium dye (5 mg mL^−1 MTT prepared in DMEM or 1 : 9 dilution MTS prepared in RPMI-1640) was added to the wells and incubated for 4 to 24 hours. MTT samples were solubilized with 100 μL solubilization buffer (1 mL HCl: 9 mL isopropanol) for 30 minutes, and the absorbance reading was taken at 550 nm and 690 nm wavelengths. MTS sample readings were taken at 490 nm without a solubilization step using the SpectraMax^R Paradigm^R Multi-Mode Detection Platform plate reader (Molecular Devices, California, USA).
A general note: Tetrazolium assays rely on reduction of a dye to a coloured formazan, in cell work by metabolically active cells.

A further data set deals with TZM-bl cells. In words: Cytotoxicity in TZM-bl cells by MTT assay. Format: cell-based. The settings on record: pyrazole vs benzofuran precursor. The procedure:
as §3, §4

The mark [3] stands for this setting: TZM-bl, 48 h, read-out: IC50 (μM) Q23, Q23 pseudovirus, TZM-bl cells, 48 hours.

For orientation: IC50 means the concentration at which inhibition is half-maximal. On to `Cc1cn([C@H]2C[C@H](N=[N+]=[N-])[C@@H](CO)O2)c(=O)[nH]c1=O` [zidovudine], for which the IC50 in data set [1] is 50 nM.

Take `Cc1ccnc2c1NC(=O)c1cccnc1N2C1CC1` [NVP, nevirapine, reference compound]: the IC50 in the data set with various HIV-1 subtypes is about 30 nM; in the data set on HIV-1 CAP210 pseudovirus, 0.1 ± 0.002 µM; in the data set with HIV-1 Q23 pseudovirus (setting [3]), under 0.11 µM; in the data set on HIV-1 Q23 pseudovirus (read-out: IC50 (μM) Q23, Q23 pseudovirus, TZM-bl cells, 48 hours), 0.11 ± 0.004 µM; in data set [1], 30 nM. Moreover, in the data set with HIV-1 CAP210 pseudovirus (all tested concentrations), the “inhibition of CAP210 infection” value is 99%. The “inhibition of Q23 infection” value in the data set on HIV-1 Q23 pseudovirus (all tested concentrations) stood at 99%. Moreover, in the data set with CAP210 pseudovirus, the “inhibition of HIV infection by time of addition” value is on record as “inhibit HIV infections for up to 8 hours”.

As usually defined, the CC50 is the concentration that lowers cell viability or growth by half. A high value points to better tolerance by the cells. Compound `COc1ccc(OC)c(-c2n[nH]cc2-c2c(O)cc(C)c(OC)c2C)c1` [5a, 2-[3-(2,5-Dimethoxyphenyl)-1H-pyrazol-4-yl]-4-methoxy-3,5-dimethylphenol] showed a CC50 at 48 h in data set [2] of 88.9 ± 22.1 µM. In addition, the “decrease in cytotoxicity versus precursor” value in the data set on TZM-bl cells was found to be 1 fold. In addition, the figures for the IC50 with HIV-1 CAP210 pseudovirus and in the data set with HIV-1 Q23 pseudovirus (setting [3]) were 18.4 ± 3.2 µM and 13.3 ± 1.12 µM, respectively.
